Here are results for 65 molecules from patent US9006450B2 (Boehringer Ingelheim International GmbH, priority 2010, dated 2015).

A word on the IC50: it is the concentration needed to halve the response being measured.

For one experiment, the target named is T1, human ACC2 (Homo sapiens, UniProt O00763).
T1 construct: made in house; host or cells: insect cells (baculoviral expression system)
T1 sequence (O00763 129-2458 limits assumed): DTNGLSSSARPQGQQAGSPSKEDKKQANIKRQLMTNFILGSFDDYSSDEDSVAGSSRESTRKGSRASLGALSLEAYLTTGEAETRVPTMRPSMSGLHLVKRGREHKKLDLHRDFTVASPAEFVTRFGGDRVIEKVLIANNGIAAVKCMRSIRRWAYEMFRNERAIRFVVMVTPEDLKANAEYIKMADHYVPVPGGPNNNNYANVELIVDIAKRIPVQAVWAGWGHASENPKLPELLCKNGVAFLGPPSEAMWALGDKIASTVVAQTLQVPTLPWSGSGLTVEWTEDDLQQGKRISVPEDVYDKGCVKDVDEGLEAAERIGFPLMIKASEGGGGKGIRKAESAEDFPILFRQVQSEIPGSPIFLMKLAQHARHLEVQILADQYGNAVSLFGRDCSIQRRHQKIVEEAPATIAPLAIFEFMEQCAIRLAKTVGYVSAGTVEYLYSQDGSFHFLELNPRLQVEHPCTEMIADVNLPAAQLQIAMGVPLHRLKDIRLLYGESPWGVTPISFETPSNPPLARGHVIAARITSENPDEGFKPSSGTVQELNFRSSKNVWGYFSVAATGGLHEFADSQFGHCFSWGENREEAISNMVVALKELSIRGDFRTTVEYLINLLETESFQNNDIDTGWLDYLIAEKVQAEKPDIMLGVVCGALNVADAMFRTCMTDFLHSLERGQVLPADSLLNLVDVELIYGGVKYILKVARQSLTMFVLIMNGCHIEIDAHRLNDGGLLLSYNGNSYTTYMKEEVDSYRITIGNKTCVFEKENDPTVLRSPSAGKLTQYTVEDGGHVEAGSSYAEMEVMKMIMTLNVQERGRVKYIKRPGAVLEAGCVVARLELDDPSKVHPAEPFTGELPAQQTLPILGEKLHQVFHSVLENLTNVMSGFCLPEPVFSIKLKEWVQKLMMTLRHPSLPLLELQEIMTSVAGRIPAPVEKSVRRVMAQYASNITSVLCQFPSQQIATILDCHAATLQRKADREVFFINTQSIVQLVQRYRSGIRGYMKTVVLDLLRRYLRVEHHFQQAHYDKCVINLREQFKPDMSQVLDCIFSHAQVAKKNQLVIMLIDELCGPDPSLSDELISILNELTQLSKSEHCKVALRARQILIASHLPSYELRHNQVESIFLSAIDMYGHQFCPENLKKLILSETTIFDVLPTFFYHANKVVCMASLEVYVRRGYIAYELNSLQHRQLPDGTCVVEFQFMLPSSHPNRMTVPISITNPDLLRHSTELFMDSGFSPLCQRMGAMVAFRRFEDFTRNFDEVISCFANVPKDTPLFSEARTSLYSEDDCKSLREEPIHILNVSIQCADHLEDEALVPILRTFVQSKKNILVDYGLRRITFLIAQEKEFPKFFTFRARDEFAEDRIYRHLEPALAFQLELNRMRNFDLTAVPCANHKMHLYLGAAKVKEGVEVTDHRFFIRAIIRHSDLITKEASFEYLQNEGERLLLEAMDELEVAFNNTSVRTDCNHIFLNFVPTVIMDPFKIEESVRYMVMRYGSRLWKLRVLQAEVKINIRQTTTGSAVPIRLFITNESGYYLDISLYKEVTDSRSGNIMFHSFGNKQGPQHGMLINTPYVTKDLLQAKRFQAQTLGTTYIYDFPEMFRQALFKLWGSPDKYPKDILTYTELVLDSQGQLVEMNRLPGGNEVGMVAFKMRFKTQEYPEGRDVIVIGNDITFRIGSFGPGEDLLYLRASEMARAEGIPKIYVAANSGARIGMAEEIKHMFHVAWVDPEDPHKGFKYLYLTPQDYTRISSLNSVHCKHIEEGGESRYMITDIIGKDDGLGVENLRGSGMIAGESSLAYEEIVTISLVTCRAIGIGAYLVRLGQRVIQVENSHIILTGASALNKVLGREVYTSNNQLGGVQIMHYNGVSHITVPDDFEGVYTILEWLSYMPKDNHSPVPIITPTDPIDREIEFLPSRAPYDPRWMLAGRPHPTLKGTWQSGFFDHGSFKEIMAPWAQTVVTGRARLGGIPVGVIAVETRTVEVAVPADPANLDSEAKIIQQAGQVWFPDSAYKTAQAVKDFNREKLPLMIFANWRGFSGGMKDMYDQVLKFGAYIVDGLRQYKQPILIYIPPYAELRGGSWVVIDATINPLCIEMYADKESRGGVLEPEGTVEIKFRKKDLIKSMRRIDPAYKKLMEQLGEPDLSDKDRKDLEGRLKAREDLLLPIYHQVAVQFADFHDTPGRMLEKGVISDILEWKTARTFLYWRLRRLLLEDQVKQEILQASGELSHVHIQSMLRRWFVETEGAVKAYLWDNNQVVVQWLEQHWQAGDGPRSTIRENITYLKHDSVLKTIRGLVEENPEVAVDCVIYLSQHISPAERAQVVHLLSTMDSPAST
Kind of experiment: ACC2 assay, spectrophotometric 384 well assay (NADH-linked, coupled lactate dehydrogenase/pyruvate kinase). The experiment is classed as biochemical. Particulars: ACC2 assay, hACC2 construct lacking 128 N-terminal amino acids, 25° C., 340 nm; read-out: IC50. A digest of the protocol: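 ADP output tracked via pyruvate kinase/lactate dehydrogenase NADH oxidation, slope at 340 nm over 15 min, 25° C, with 500 μM ATP and 200 μM each acetyl-CoA and NADH. Enzyme: insect-cell-expressed human ACC2, N-terminal 128 residues deleted; pH 7.5 Tris with citrate, KHCO3. IC50 from four-parameter regression versus vehicle and no-acetyl-CoA controls.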
With `CC(=O)N[C@@H](C)c1ccc(C2CCN(c3ccnc(Oc4ccccc4)n3)CC2)cc1` [Example 11.119], the IC50 was 240 nM.

As to `CC(=O)N[C@@H](C)c1ccc(C2CCN(c3ccc(OC4CCCC4)cc3)CC2)cc1` [Example 1.2], the concentration for half-maximal inhibition (IC50) was 50 nM.

With `CC(=O)N[C@@H](C)c1ccc(C2CCN(c3ncc(-c4cccc5cc[nH]c45)cn3)CC2)cc1` [Example 10.118], the concentration for half-maximal inhibition (IC50) is 150 nM.

On to `COCCOc1cc(N2CCC(c3ccc([C@H](C)NC(C)=O)cc3)CC2)ccn1` [Example 19.3], for which the IC50 turned out to be 700 nM.

Regarding `CC(=O)N[C@@H](C)c1ccc(C2CCN(c3cccc4c3OCCO4)CC2)cc1` [Example 1.98], the IC50 amounted to 470 nM.

Regarding `CCOc1ccc(-c2nccc(N3CCC(c4ccc([C@H](C)NC(C)=O)cc4)CC3)n2)cc1` [Example 22.6], the 50% inhibitory concentration (IC50) was found to be 1200 nM.

Take `CC(=O)N[C@@H](C)c1ccc(C2CCN(c3ncc(C(=O)NCCn4ccnc4)cn3)CC2)cc1` [Example 18.73]: the 50% inhibitory concentration (IC50) was determined as 17900 nM.

With `CC(=O)N[C@@H](C)c1ccc(C2CCN(c3ncc(-c4ccc5cc[nH]c5c4)cn3)CC2)cc1` [Example 10.114], the half-inhibitory concentration (IC50) stood at 410 nM.

For `CCCOc1ccc(N2CCC(c3ccc([C@H](C)NC(=O)CC)cc3)CC2)cc1` [Example 1.145], the IC50 came out at 140 nM.

Consider `CCOc1ccc(N2CCC(c3ccc([C@H](C)NC(=O)CN(C)C)cc3)CC2)cc1` [Example 36.1, (S)-2-(Dimethylamino)-N-(1-{4-[1-(4-ethoxyphenyl)piperidin-4-yl]phenyl}ethyl)acetamide], for which the IC50 was determined as 1600 nM.

As for `CCOc1ccc(N2CCC(c3ccc([C@H](C)NC(=O)c4nccs4)cc3)CC2)cc1` [Example 6.33], the IC50 came out at 3100 nM.

With `CC(=O)N[C@@H](C)c1ccc(C2CCN(c3ccc4nc(C)n(C)c4c3)CC2)cc1` [Example 1.70], the half-inhibitory concentration (IC50) worked out at 7400 nM.

Regarding `CCNC(=O)N[C@@H](C)c1ccc(C2CCN(c3ccc(OCC)cc3)CC2)cc1` [Example 14.2], the half-maximal inhibitory concentration (IC50) was 2700 nM.

Consider `CCOc1ccc(-c2cnc(N3CCC(c4ccc([C@H](C)NC(C)=O)cc4)CC3)nc2)cn1` [Example 10.38], for which the IC50 is 3000 nM.

Regarding `CC(=O)N[C@@H](C)c1ccc(C2CCN(c3nccc(I)c3C)CC2)cc1` [Example 5.39], the concentration for half-maximal inhibition (IC50) was found to be 340 nM.

On to `CC(=O)Nc1cnc(N2CCC(c3ccc([C@H](C)NC(C)=O)cc3)CC2)nc1` [Example 4.34], for which the half-inhibitory concentration (IC50) was 9500 nM.

For the molecule `CC(=O)N[C@@H](C)c1ccc(C2CCN(c3ncc(-c4ccc(F)cc4)cc3F)CC2)cc1` [Example 10.311], the IC50 was 180 nM.

Consider `CC(=O)N[C@@H](C)c1ccc(C2CCN(c3ccnc(OCCc4ccccc4)c3)CC2)cc1` [Example 19.9], for which the IC50 is 1300 nM.

As to `CC(=O)N[C@@H](C)c1ccc(C2CCN(c3nccc(C(F)(F)F)n3)CC2)cc1` [Example 4.11], the IC50 came to 850 nM.

On to `CC(=O)N[C@@H](C)c1ccc(C2CCN(c3ccnc(OCc4ccc(F)cc4)c3)CC2)cc1` [Example 19.33], for which the half-maximal inhibitory concentration (IC50) was 400 nM.

For the molecule `CNc1nccc(N2CCC(c3ccc([C@H](C)NC(C)=O)cc3)CC2)n1` [Example 11.84], the concentration for half-maximal inhibition (IC50) was determined as 6500 nM.

Take `CCOc1ccc(N2CCC(c3ccc([C@H](C)NC(=O)OC)cc3)CC2)cc1` [Example 1.5]: the IC50 stood at 350 nM.

With `CC(=O)N[C@@H](C)c1ccc(C2CCN(c3cccc(OCCOC4CC4)c3)CC2)cc1` [Example 9.14], the IC50 was found to be 270 nM.

Consider `CC(=O)N[C@@H](C)c1ccc(C2CCN(c3ncc(C(=O)NCC4CCN(c5ccccc5)C4)cn3)CC2)cc1` (some centres unmarked) [Example 18.67], for which the IC50 was 23700 nM.

With `CCOc1ccc(N2CCC(c3ccc([C@H](C)NC(=O)N(C)C)cc3)CC2)c(F)c1` [Example 1.85], the IC50 amounted to 140 nM.

Take `CCC(C)Oc1ccc(N2CCC(c3ccc([C@H](C)NC(=O)OC)cc3)CC2)cc1` (some centres unmarked) [Example 1.15]: the half-maximal inhibitory concentration (IC50) was found to be 240 nM.

Turning to `CC(=O)N[C@@H](C)c1ccc(C2CCN(c3cc(N4Cc5ccccc5C4)ncn3)CC2)cc1` [Example 11.89], the half-maximal inhibitory concentration (IC50) is 760 nM.

Regarding `CC(=O)N[C@@H](C)c1ccc(C2CCN(c3ccc4sccc4c3)CC2)cc1` [Example 1.69], the 50% inhibitory concentration (IC50) is 4000 nM.

Consider `CC(=O)N[C@@H](C)c1ccc(C2CCN(c3ccnc(OC(C)c4ccccc4)c3)CC2)cc1` (some centres unmarked) [Example 19.7], for which the concentration for half-maximal inhibition (IC50) stood at 590 nM.

As to `CC(=O)N[C@@H](C)c1ccc(C2CCN(c3ccc(OCC4CC4)c(Cl)c3)CC2)cc1` [Example 9.46], the concentration for half-maximal inhibition (IC50) was 560 nM.

With `C/C=C/CCOc1ccc(N2CCC(c3ccc([C@H](C)NC(C)=O)cc3)CC2)cc1` [Example 8.64], the IC50 turned out to be 120 nM.

On to `CC(=O)N[C@@H](C)c1ccc(C2CCN(c3ccc(OC4CCCC4)c(F)c3)CC2)cc1` [Example 8.37], for which the half-inhibitory concentration (IC50) came to 660 nM.

Consider `CCOc1ccc(N2CCC(c3ccc([C@H](C)NS(=O)(=O)C(F)(F)F)cc3)CC2)cc1` [Example 17.4], for which the IC50 amounted to 11300 nM.

For `CC(=O)N[C@@H](C)c1ccc(C2CCN(c3ncc(-c4ccc(F)c(C)c4)cn3)CC2)cc1` [Example 10.49], the IC50 came to 260 nM.

In the case of `CCNc1cc(N2CCC(c3ccc([C@H](C)NC(C)=O)cc3)CC2)ncn1` [Example 11.51], the IC50 was 7800 nM.

For the molecule `CCCOc1cnc(N2CCC(c3ccc([C@H](C)NC(=O)N(C)C)cc3)CC2)nc1` [Example 4.306], the half-inhibitory concentration (IC50) was 120 nM.

In the case of `CC(=O)N[C@@H](C)c1ccc(C2CCN(c3cc(OC4CCC4)ncn3)CC2)cc1` [Example 11.109], the IC50 turned out to be 80 nM.

On to `CCOc1cccc(-c2ccnc(N3CCC(c4ccc([C@H](C)NC(C)=O)cc4)CC3)n2)c1` [Example 22.10], for which the 50% inhibitory concentration (IC50) worked out at 240 nM.

Consider `CCOc1ccc(N2CCC(c3ccc([C@H](C)NC(=O)C4(C)CC4)cc3)CC2)cc1` [Example 6.9], for which the IC50 stood at 150 nM.

On to `CC(=O)N[C@@H](C)c1ccc(C2CCN(c3ccc(OCC4CCO4)c(F)c3)CC2)cc1` (some centres unmarked) [Example 8.48], for which the concentration for half-maximal inhibition (IC50) worked out at 1600 nM.

As for `CCCOc1ccc(N2CCC(c3ccc([C@H](C)NC(=O)C(F)(F)F)cc3)CC2)c(OC)c1` [Example 40.1, (S)-2,2,2-Trifluoro-N-{1-[4-(1-(2-methoxy-4-propoxyphenyl)piperidin-4-yl)phenyl]-ethyl}acetamide], the IC50 amounted to 290 nM.

On to `CC(=O)N[C@@H](C)c1ccc(C2CCN(c3ccc(OCC4CC4)c(F)c3)CC2)cc1` [Example 9.41], for which the IC50 stood at 220 nM.

Regarding `COc1ccc(N2CCC(c3ccc([C@H](C)NC(C)=O)cc3)CC2)c(OC)c1` [Example 1.41], the IC50 is 320 nM.

In the case of `CCCOc1ccc(N2CCC(c3ccc([C@H](C)NC(=O)C4CC4)cc3)CC2)c(C#N)c1` [Example 1.115], the concentration for half-maximal inhibition (IC50) amounted to 110 nM.

For `CC(=O)N[C@@H](C)c1ccc(C2CCN(c3cccc(OC4CCCOC4)c3)CC2)cc1` (some centres unmarked) [Example 9.3], the 50% inhibitory concentration (IC50) was 1400 nM.

Consider `C[C@H](NC(=O)N(C)C)c1ccc(C2CCN(c3ncc(-c4ccoc4)cn3)CC2)cc1` [Example 10.113], for which the IC50 was found to be 530 nM.

With `CCC(=O)N[C@@H](C)c1ccc(C2CCN(c3ccc(OCC4CC4(F)F)cc3)CC2)cc1` (some centres unmarked) [Example 1.152], the IC50 came to 80 nM.

As to `COc1ccc(CNC(=O)c2cnc(N3CCC(c4ccc([C@H](C)NC(C)=O)cc4)CC3)nc2)cc1` [Example 18.19], the 50% inhibitory concentration (IC50) was determined as 20500 nM.

On to `CC(=O)N[C@@H](C)c1ccc(C2CCN(c3ncc(-c4c(C)noc4C)cn3)CC2)cc1` [Example 10.20], for which the 50% inhibitory concentration (IC50) is 2700 nM.

With `CC(=O)N[C@@H](C)c1ccc(C2CCN(c3cc(OCc4ccccc4)ncn3)CC2)cc1` [Example 11.24], the IC50 is 370 nM.

For `CC(=O)N[C@@H](C)c1ccc(C2CCN(c3ncc(C(=O)N4CCc5ccccc54)cn3)CC2)cc1` [Example 18.9], the IC50 came out at 1600 nM.

Regarding `CCCCNc1nccc(N2CCC(c3ccc([C@H](C)NC(C)=O)cc3)CC2)n1` [Example 11.63], the IC50 amounted to 2000 nM.

Turning to `CCOc1ccc(N2CCC(c3ccc([C@H](C)NC(=O)CNC(=O)OC(C)(C)C)cc3)CC2)cc1` [Example 6.49], the 50% inhibitory concentration (IC50) worked out at 8300 nM.

Consider `CC(=O)N[C@@H](C)c1ccc(C2CCN(c3cc(NCCC4CC4)ncn3)CC2)cc1` [Example 11.107], for which the half-maximal inhibitory concentration (IC50) came to 2400 nM.

Consider `COc1ccc(-c2cnc(N3CCC(c4ccc([C@H](C)NC(C)=O)cc4)CC3)nc2)cn1` [Example 10.2], for which the IC50 was determined as 200 nM.

On to `CCOc1ncc(N2CCC(c3ccc([C@H](C)NC(=O)N(C)C)cc3)CC2)cn1` [Example 16.7], for which the half-maximal inhibitory concentration (IC50) is 1400 nM.

Consider `C[C@H](NC(=O)C1CC1)c1ccc(C2CCN(c3nc(N4CCCC4)ncc3C#N)CC2)cc1` [Example 11.122], for which the concentration for half-maximal inhibition (IC50) amounted to 1400 nM.

For the molecule `CC(=O)N[C@@H](C)c1ccc(C2CCN(c3ccc(C4CC4)nc3)CC2)cc1` [Example 1.175], the 50% inhibitory concentration (IC50) came to 1100 nM.

With `CCOCCOc1cccc(N2CCC(c3ccc([C@H](C)NC(C)=O)cc3)CC2)c1` [Example 8.2], the IC50 was found to be 300 nM.

With `CCOc1cccc(-c2cnc(N3CCC(c4ccc([C@H](C)NC(C)=O)cc4)CC3)c(F)c2)c1` [Example 10.307], the IC50 amounted to 310 nM.

With `CC(=O)N[C@@H](C)c1ccc(C2CCN(c3ccc(OCC4CCO4)c(Cl)c3)CC2)cc1` (some centres unmarked) [Example 8.50], the concentration for half-maximal inhibition (IC50) stood at 1100 nM.

For `CC(=O)N[C@@H](C)c1ccc(C2CCN(c3ncc4nc(-c5ccncc5)oc4n3)CC2)cc1` [Example 5.10], the IC50 was found to be 100 nM.

Turning to `CC(=O)N[C@@H](C)c1ccc(C2CCN(c3ccc(OCC4CCC4)c(F)c3)CC2)cc1` [Example 9.42], the IC50 was 160 nM.

For `COc1cc(C)c(-c2cnc(N3CCC(c4ccc([C@H](C)NC(C)=O)cc4)CC3)nc2)cc1C` [Example 10.127], the concentration for half-maximal inhibition (IC50) was 1600 nM.

The experiment is the same for the next values; noted with them: IC50, ACC2 assay, hACC2 construct lacking 128 N-terminal amino acids, 25° C., 340 nm.
Take `CCOc1ccc(N2CCC(c3ccc([C@H](C)NC(=O)CF)cc3)CC2)cc1` [Example 6.14]: inhibition was half-maximal at 190 nM (IC50).
